# Patent US5508180A, “Biocatalytic oxidation using soybean peroxidase” (Enzymol International, Inc., priority 1994, dated 1996)
# What was measured:
# Format in all cases: biochemical
# [1] = biological target: T1, soybean peroxidase (Glycine max, UniProt O22443); assay: Oxidation of methyl p-tolyl sulfide to sulfoxide and sulfone by soybean peroxidase; details: for Absorbance Units at 308 nm: pH 2 (conversion to sulfone)
# T1 construct: secreted heme glycoprotein, reported 37 kDa
# Method: Methyl p-tolyl sulfide (MTS), and the enantiomeric oxidation products (R)-(+)-methyl tolyl sulfoxide (MTSO) and (S)-(-)-methyl tolyl sulfoxide, were purchased from Aldrich (Milwaukee, Wis). A stock solution of MTS was prepared by adding 1 g MTS to 750 ml water and heating at 60° C. for 15 min. A warm stock solution was used for all assays to maintain the substrate in solution. […] At pH 2 these peaks shift to 274 and 311 nm, respectively.
# Assays with MTS were done with 120 ppu SBP and 1 mM H2 O2.
# The effect of pH on the oxidation of MTS was studied to optimize the reaction. Buffers were used at the indicated pH at 25 mM concentration.
# The effect of temperature on aromatic sulfide oxidation was investigated at pH 3.5 using MTS. Conditions were 120 ppu SBP, 25 mM Glycine, 2 mM MTS, 1 mM H2 O2.
# [2] = biological target: T1, soybean peroxidase; assay: Oxygen-mediated hydroxylation of tyrosine by soybean peroxidase with dihydroxyfumaric acid, loss of DHF absorbance
# Method: Tyrosine, 0.2 g was added to 150 ml water and HCl was added until the tyrosine dissolved at about pH 3. Dihydroxyfumaric acid (DHF), 0.44 g was added to 100 ml water and dilute (1%) sodium hydroxide was added until the acid dissolved at about pH 3.
# Hydroxylation of tyrosine was achieved by mixing 2 ml tyrosine solution, 1 ml 0.1M buffer selected from a range of pH 1-13, 0.1 ml soybean peroxidase at 10 mg/ml and last, adding 0.1 ml DHF stock solution. The reference curvette contained the same mixture of tyrosine, buffer and DHF stock solutions. No hydrogen peroxide was used in these reaction. Dissolved oxygen from air served as the source of oxidant. Peak wavelength corresponding to DHF, determined by DHF absorbance in the solution, was monitored for loss in absorbance, indicating consumption of the reducing agent and hydroxylation of the phenol. Oxidation was followed by monitoring wavelengths from 500 to 200 nm at zero time and 1 minute of reaction. The absorbance difference at the wavelength corresponding to loss of DHF was recorded.
# [3] = biological target: T1, soybean peroxidase; assay: Oxidation of veratryl alcohol to veratryl aldehyde by soybean peroxidase and hydrogen peroxide, absorbance at 308 nm
# Method: Preparation of Soybean Peroxidase Solution: Purified soybean peroxidase was lyophilized to give a powder at 120 purpurogallin units (as defined by Sigma) per mg. Purification was done with addition of 5 mM CaCl2, but without buffers or other non-volatile substances which would carry over with the enzyme in the powder. Lyophilization typically yielded 4.5 g from 60 ml. […] Using the extinction coefficient reported for heme in HRP ([…] at 403 nm in 0.1M Tris pH 7), and the reported molecular weight of SBP (37,000), the solid was 60% peroxidase by weight.
# Preparation of peroxide stock solution: 1.5 ml of 30% hydrogen peroxide was diluted to 100 ml with water to provide a 0,147M stock solution of hydrogen peroxide.
# 0.1 ml soybean peroxidase (120 purpurogallin units/ml) stock solution was added to 3 ml veratryl alcohol solution (1 g veratryl alcohol in 750 ml water) and vortexed in a test tube. 20 μl peroxide stock solution was added, mixed and the solution poured into a 1 cm path, 4 ml quartz cuvette. Using a Shimadzu UV-160 double beam recording spectophotometer, the change in absorbance of the sample compared to a reference cuvette containing 3 ml veratryl alcohol solution only was monitored every minute by scanning wavelengths from 500 to 200 nm. The peak wavelength of 308 nm was identified as veratryl aldehyde and was used for further monitoring. The kinetics of the reaction were determined from the linear portion of the increase in absorbance.
# To determine the effects of pH on the oxidation of veratryl alcohol, a veratryl alcohol stock solution containing 20 mM CaCl2 was divided into 9 samples and each sample treated with HCl to provide 9 samples ranging in pH from 1.25 to 3.3 ml of solution was withdrawn from each sample and the change in absorbance (dA) of veratryl alcohol in each sample was measured at 308 nm at room temperature.
# To determine the effects of temperature on veratryl alcohol oxidation at a pH of 2, 5 samples of a veratryl alcohol stock solution without CaCl2 were obtained and the absorbance of veratryl alcohol was measured at varying temperatures. The samples were incubated in a circulating water bath and cuvette blocks were preheated by connection with the same bath. The test cuvette was left empty in the block to equilibrate prior to assay. Enzyme and peroxide stock solutions were stored at room temperature. Assay was initiated by pouring the alcohol solution into the cuvette, adding 0.1 ml enzyme, inverting, adding 20 ul peroxide, inverting, and immediately starting to record change in absorbance.
# T1 sequence (O22443 27-332): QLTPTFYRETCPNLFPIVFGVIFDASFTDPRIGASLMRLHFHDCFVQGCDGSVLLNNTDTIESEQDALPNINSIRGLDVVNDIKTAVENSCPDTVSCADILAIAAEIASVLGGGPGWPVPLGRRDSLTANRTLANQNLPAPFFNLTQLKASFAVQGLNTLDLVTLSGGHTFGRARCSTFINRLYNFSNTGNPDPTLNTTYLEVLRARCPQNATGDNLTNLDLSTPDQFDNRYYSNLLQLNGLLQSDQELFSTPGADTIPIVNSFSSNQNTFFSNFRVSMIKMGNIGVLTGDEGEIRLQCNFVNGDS
compound,measurement,setting,value
"CSc1ccc(C)cc1 [MTS, Methyl p-tolyl sulfide]",pH optimum of oxidation of MTS to MTSO,[1],3.5
same,dA per min at 279 nm,"[1]; 25 °C, pH 3.5, 120 ppu SBP, 25 mM Glycine, 2 mM MTS, 1 mM H2O2",0.0607
same,dA per min at 279 nm,"[1]; 35 °C, pH 3.5, 120 ppu SBP, 25 mM Glycine, 2 mM MTS, 1 mM H2O2",0.0824
same,dA per min at 279 nm,"[1]; 45 °C, pH 3.5, 120 ppu SBP, 25 mM Glycine, 2 mM MTS, 1 mM H2O2",0.1012
same,dA per min at 279 nm,"[1]; 55 °C, pH 3.5, 120 ppu SBP, 25 mM Glycine, 2 mM MTS, 1 mM H2O2",0.1735
same,dA per min at 279 nm,"[1]; 65 °C, pH 3.5, 120 ppu SBP, 25 mM Glycine, 2 mM MTS, 1 mM H2O2",0.2563
same,dA per min at 279 nm,"[1]; 75 °C, pH 3.5, 120 ppu SBP, 25 mM Glycine, 2 mM MTS, 1 mM H2O2",0.1065
same,dA per min at 279 nm,"[1]; 85 °C, pH 3.5, 120 ppu SBP, 25 mM Glycine, 2 mM MTS, 1 mM H2O2",0.0908
same,dA per min at 279 nm,"[1]; pH 1, 25 mM buffer",0.0348
same,dA per min at 279 nm,"[1]; pH 2, 25 mM buffer",-0.1376
same,dA per min at 279 nm,"[1]; pH 3, 25 mM buffer",0.1042
same,dA per min at 279 nm,"[1]; pH 3.5, 25 mM buffer",0.218
same,dA per min at 279 nm,"[1]; pH 4, 25 mM buffer",0.0893
same,dA per min at 279 nm,"[1]; pH 4.5, 25 mM buffer",0.0017
same,Absorbance Units at 308 nm,[1]; time of reaction 0 min,0.21 Absorbance Units
same,Absorbance Units at 308 nm,[1]; time of reaction 1 min,0.293 Absorbance Units
same,Absorbance Units at 308 nm,[1]; time of reaction 2 min,0.35 Absorbance Units
same,Absorbance Units at 308 nm,[1]; time of reaction 3 min,0.381 Absorbance Units
same,Absorbance Units at 308 nm,[1]; time of reaction 4 min,0.401 Absorbance Units
"N[C@@H](Cc1ccc(O)cc1)C(=O)O [tyrosine, Tyrosine]",dA per min,"[2]; pH 1, λ 310 nm, loss of DHF absorbance",0
same,dA per min,"[2]; pH 2, λ 315 nm, loss of DHF absorbance",0.012
same,dA per min,"[2]; pH 3, λ 321 nm, loss of DHF absorbance",0.726
same,dA per min,"[2]; pH 3.5, λ 318 nm, loss of DHF absorbance",0.886
same,dA per min,"[2]; pH 4, λ 319 nm, loss of DHF absorbance",0.065
same,dA per min,"[2]; pH 4.5, λ 320 nm, loss of DHF absorbance",0.391
same,dA per min,"[2]; pH 5, λ 303 nm, loss of DHF absorbance",1.897
same,dA per min,"[2]; pH 5.5, λ 302 nm, loss of DHF absorbance",0.971
same,dA per min,"[2]; pH 6, λ 302 nm, loss of DHF absorbance",2.226
same,dA per min,"[2]; pH 6.5, λ 302 nm, loss of DHF absorbance",2.134
same,dA per min,"[2]; pH 7, interference from Tris buffer",0
same,dA per min,"[2]; pH 7.5, interference from Tris buffer",0
same,dA per min,"[2]; pH 8, interference from Tris buffer",0
same,dA per min,"[2]; pH 8.5, λ 305 nm, loss of DHF absorbance",1.098
same,dA per min,"[2]; pH 9, λ 304 nm, loss of DHF absorbance",1.705
same,dA per min,"[2]; pH 9.5, λ 302 nm, loss of DHF absorbance",1.66
same,dA per min,"[2]; pH 10, λ 302 nm, loss of DHF absorbance",0.768
same,dA per min,"[2]; pH 10.5, λ 302 nm, loss of DHF absorbance",1.372
same,dA per min,"[2]; pH 11, λ 302 nm, loss of DHF absorbance",1.988
same,dA per min,"[2]; pH 11.5, λ 305 nm, loss of DHF absorbance",0.075
same,dA per min,"[2]; pH 12, λ 305 nm, loss of DHF absorbance",0.069
same,dA per min,"[2]; pH 13, λ 305 nm, loss of DHF absorbance",0
"COc1ccc(CO)cc1OC [veratryl alcohol, 3,4-dimethoxybenzyl alcohol]",activity (dA per minute at 308 nm),[3]; 0.1M KCl/HCl buffer at pH 2,0.2265
same,dA per minute at 308 nm,"[3]; 25 °C, pH 2, without CaCl2",1.427
same,dA per minute at 308 nm,"[3]; 35 °C, pH 2, without CaCl2",2.358
same,dA per minute at 308 nm,"[3]; 45 °C, pH 2, without CaCl2",3.17
same,dA per minute at 308 nm,"[3]; 55 °C, pH 2, without CaCl2",0.3467
same,dA per minute at 308 nm,"[3]; 65 °C, pH 2, without CaCl2",0.0018
same,dA per minute at 308 nm,"[3]; pH 1.25, 20 mM CaCl2, room temperature",0.0045
same,dA per minute at 308 nm,"[3]; pH 1.35, 20 mM CaCl2, room temperature",0.0361
same,dA per minute at 308 nm,"[3]; pH 1.65, 20 mM CaCl2, room temperature",0.2358
same,dA per minute at 308 nm,"[3]; pH 1.85, 20 mM CaCl2, room temperature",1.611
same,dA per minute at 308 nm,"[3]; pH 2.15, 20 mM CaCl2, room temperature",0.945
same,dA per minute at 308 nm,"[3]; pH 2.35, 20 mM CaCl2, room temperature",0.2243
same,dA per minute at 308 nm,"[3]; pH 2.55, 20 mM CaCl2, room temperature",0.1093
same,dA per minute at 308 nm,"[3]; pH 2.85, 20 mM CaCl2, room temperature",0.0587
same,dA per minute at 308 nm,"[3]; pH 3, 20 mM CaCl2, room temperature",0.0119
same,pH optimum,[3]; veratryl alcohol oxidation,around 2
